US20230265116A1, “DEGRADATION OF (EGFR) BY CONJUGATION OF EGFR INHIBITORS WITH E3 LIGASE LIGAND AND METHODS OF USE” (BEIGENE, LTD., priority 2020, published 2023)

Tests used:
[1] = biological target: T1, EGFR L858R/T790M/C797S (BaF3-LTC cells) (Homo sapiens, UniProt P00533, C797S/L858R/T790M); experiment: EGFR degradation HTRF assay, BaF3-LTC cells; format: cell-based; conditions: BaF3-LTC, 16h treatment; for Dmax: maximum percentage of degradation, read-out: LTC Dmax (%); for DC50: read-out: LTC DC50
T1 construct: expressed in transfected cells; host or cells: BaF3
Summary of the method: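 Cells treated 16 h at 37 °C, 5% CO2 in medium with 0.2% DMSO; top final concentration 10 uM, 5-fold dilution, 8 doses. Lysates read by HTRF (665/620 nm); degradation % versus DMSO high control, DC50 from four-parameter fit, Dmax as maximal degradation.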

[2] = test system: EGFR Del19/T790M/C797S (BaF3-DTC cells); experiment: EGFR degradation HTRF assay, BaF3-DTC cells; format: cell-based; conditions: 16h treatment; for DTC Dmax (%): maximum percentage of degradation; for DC50: read-out: DTC DC50
Protocol: BaF3 WT(wild type), BaF3-LTC(L858R/T790M/C797S) and BaF3-DTC(Del19/T790M/C797S) cells are treated with compounds diluted in 0.2% DMSO cell culture medium and incubate for 16h, 37° C., 5% CO2, H1975-#36, H1975-#28, H1975-#23 and HCC827 cells are treated with compounds diluted in 0.2% DMSO cell culture medium on day 2, incubate for 16h, 37° C., 5% CO2.the final concentriation of compounds in all assay is start with 10 uM, 5-fold dilution, total 8 doses were included.
After 16h treatment, add HTRF lysis buffer to each well; seal the plate and incubate 1 hour at room temperature on a plate shaker; Once the cells are lysed, 16 μL of cell lysate are transferred to a PE 384-well HTRF detection plate; 4 μL of pre-mixed HTRF antibodies are added to each well; Cover the plate with a plate sealer, spin 1000 rpm for 1 min, Incubate overnight at room temperature; Read on BMG PheraStar with HTRF protocol (337 nm-665 nm-620 nm).
The inhibition (degradation) percentage of the compound was calculated by the following equation: Inhibition percentage of Compound=100-100×(Signal-low control)/(High control-low control), wherein signal=each test compound group
High control=Cell group with added DMSO and without compound, indicating microplate readings without EGFR degradation;
Dmax is the maximum percentage of inhibition (degradation).
The IC50 (DC50) value of a compound can be obtained by fitting the following equation
Y=Bottom+(TOP−Bottom)/(1+((IC50/X)^hillslope))
Wherein, X and Y are known values, and IC50, Hillslope, Top and Bottom are the parameters obtained by fitting with software. Y is the inhibition percentage (calculated from the equation), X is the concentration of the compound; IC50 is the concentration of the compound when the 50% inhibition is reached. The smaller the IC50 value is, the stronger the inhibitory ability of the compound is. Vice versa, the higher the IC50 value is, the weaker the inhibitory ability of the compound is; Hillslope represents the slope of the fitted curve, generally around 1*; Bottom represents the minimum value of the curve obtained by data fitting, which is generally 0%±20%; Top represents the maximum value of the curve obtained by data fitting, which is generally 100%±20%. The experimental data were fitted by calculating and analyzing with Dotmatics data analysis software.

T1 sequence (P00533 25-1210 T790M/C797S/L858R): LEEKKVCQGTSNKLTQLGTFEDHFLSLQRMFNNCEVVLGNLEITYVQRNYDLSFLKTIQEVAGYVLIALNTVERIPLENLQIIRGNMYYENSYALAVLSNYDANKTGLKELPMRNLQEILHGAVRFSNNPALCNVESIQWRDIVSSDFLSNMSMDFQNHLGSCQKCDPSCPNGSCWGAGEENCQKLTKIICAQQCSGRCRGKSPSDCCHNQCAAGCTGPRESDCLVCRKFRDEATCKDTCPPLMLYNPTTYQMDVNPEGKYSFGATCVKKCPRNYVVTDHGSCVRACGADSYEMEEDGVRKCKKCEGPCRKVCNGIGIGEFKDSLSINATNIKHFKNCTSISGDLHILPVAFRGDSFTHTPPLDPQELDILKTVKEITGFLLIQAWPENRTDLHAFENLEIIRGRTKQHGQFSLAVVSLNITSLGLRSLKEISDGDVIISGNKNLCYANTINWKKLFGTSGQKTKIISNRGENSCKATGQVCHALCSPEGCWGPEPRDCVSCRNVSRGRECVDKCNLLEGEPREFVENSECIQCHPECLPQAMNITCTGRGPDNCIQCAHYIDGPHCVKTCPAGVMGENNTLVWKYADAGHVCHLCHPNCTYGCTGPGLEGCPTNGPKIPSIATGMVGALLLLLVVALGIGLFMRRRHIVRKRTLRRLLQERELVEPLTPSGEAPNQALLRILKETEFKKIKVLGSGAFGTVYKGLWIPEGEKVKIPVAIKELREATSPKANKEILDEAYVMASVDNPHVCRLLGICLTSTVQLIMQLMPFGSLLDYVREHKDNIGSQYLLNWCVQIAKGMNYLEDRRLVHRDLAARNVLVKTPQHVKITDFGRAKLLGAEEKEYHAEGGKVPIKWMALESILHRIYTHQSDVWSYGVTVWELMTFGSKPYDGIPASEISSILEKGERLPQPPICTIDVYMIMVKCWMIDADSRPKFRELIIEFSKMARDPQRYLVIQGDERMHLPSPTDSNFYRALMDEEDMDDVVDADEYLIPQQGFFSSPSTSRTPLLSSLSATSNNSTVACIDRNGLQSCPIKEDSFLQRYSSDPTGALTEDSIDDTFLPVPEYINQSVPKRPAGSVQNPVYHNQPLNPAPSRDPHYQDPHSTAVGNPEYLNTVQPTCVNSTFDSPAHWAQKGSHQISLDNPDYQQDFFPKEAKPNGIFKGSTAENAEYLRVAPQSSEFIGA

Row | SMILES | Dmax [1] | DC50 [1] | DTC Dmax (%) [2] | DC50 [2]
1 | CCc1cc(Nc2ncc(Br)c(Nc3ccc4nccnc4c3P(C)(C)=O)n2)c(OC)cc1N1CCC(N2CCN(C[C@@H]3CCN(c4ccc5c(c4)CN(C4CCC(=O)NC4=O)C5=O)C3)CC2)CC1 (stereo partly drawn) [Example 234, 3-(5-((S)-3-((4-(1-(4-((5-bromo-4-((5-(dimethylphosphoryl)quinoxalin-6-yl)amino)pyrimidin-2-yl)amino)-2-ethyl-5-methoxyphenyl)piperidin-4-yl)piperazin-1-yl)methyl)pyrrolidin-1-yl)-1-oxoisoindolin-2-yl)piperidine-2,6-dione] | 87.8% | 15.8 nM | 90.55% | 4.19 nM
2 | CCc1cc(Nc2ncc(Br)c(Nc3ccc4ncc(F)cc4c3P(C)(C)=O)n2)c(OC)cc1N1CCC(N2CCN(CCc3cc(F)c(C4CCC(=O)NC4=O)c(F)c3)CC2)CC1 (centres unmarked) [Example 336, 3-(4-(2-(4-(1-(4-((5-bromo-4-((5-(dimethylphosphoryl)-3-fluoroquinolin-6-yl)amino)pyrimidin-2-yl)amino)-2-ethyl-5-methoxyphenyl)piperidin-4-yl)piperazin-1-yl)ethyl)-2,6-difluorophenyl)piperidine-2,6-dione] | 88.5% | 9.91 nM | 94.98% | 0.984 nM
3 | CCc1cc(Nc2ncc(Br)c(Nc3ccc4nccnc4c3P(C)(C)=O)n2)c(OC)cc1N1CCC(N2CCN(CCc3ccc(C4CCC(=O)NC4=O)c(F)c3)C[C@@H]2COC)CC1 (stereo partly drawn) [Example 286, 3-(4-(2-((R)-4-(1-(4-((5-bromo-4-((5-(dimethylphosphoryl)quinoxalin-6-yl)amino)pyrimidin-2-yl)amino)-2-ethyl-5-methoxyphenyl)piperidin-4-yl)-3-(methoxymethyl)piperazin-1-yl)ethyl)-2-fluorophenyl)piperidine-2,6-dione] | 81.5% | 59.3 nM | 75.85% | 23.7 nM
4 | CCc1cc(Nc2ncc(Br)c(Nc3ccc4nccnc4c3P(C)(C)=O)n2)c(OC)cc1N1CCC(N2CCN(CC3CN(c4ccc(C5CCC(=O)NC5=O)c(F)c4)C3)CC2)CC1 (centres unmarked) [Example 252, 3-(4-(3-((4-(1-(4-((5-bromo-4-((5-(dimethylphosphoryl)quinoxalin-6-yl)amino)pyrimidin-2-yl)amino)-2-ethyl-5-methoxyphenyl)piperidin-4-yl)piperazin-1-yl)methyl)azetidin-1-yl)-2-fluorophenyl)piperidine-2,6-dione] | 80.8% | 34.8 nM | 85.86% | 17.1 nM
5 | CCc1cc(Nc2ncc(Br)c(Nc3ccc4nc(C)ccc4c3P(C)(C)=O)n2)c(OC)cc1N1CCC(N2CCN(CCc3ccc4c(c3)C(C)(C)C(=O)N4C3CCC(=O)NC3=O)CC2)CC1 (centres unmarked) [Example 711, 3-(5-(2-(4-(1-(4-((5-bromo-4-((5-(dimethylphosphoryl)-2-methylquinolin-6-yl)amino)pyrimidin-2-yl)amino)-2-ethyl-5-methoxyphenyl)piperidin-4-yl)piperazin-1-yl)ethyl)-3,3-dimethyl-2-oxoindolin-1-yl)piperidine-2,6-dione] | 90.8% | 2.88 nM | 91.94% | 0.505 nM
6 | CCc1cc(Nc2ncc(Br)c(Nc3ccc4nccnc4c3P(C)(C)=O)n2)c(OC)cc1N1CCN(C2CCN(C3CCC(c4ccc(C5CCC(=O)NC5=O)cc4)C3)CC2)CC1 (centres unmarked) [Example 178, 3-(4-(3-(4-(4-(4-((5-bromo-4-((5-(dimethylphosphoryl)quinoxalin-6-yl)amino)pyrimidin-2-yl)amino)-2-ethyl-5-methoxyphenyl)piperazin-1-yl)piperidin-1-yl)cyclopentyl)phenyl)piperidine-2,6-dione] | 83.5% | 71.8 nM | 81.18% | 44.4 nM
7 | CCc1cc(Nc2ncc(Br)c(Nc3ccc4nccnc4c3P(C)(C)=O)n2)c(OC)cc1N1CCC(N2CCN(C(=O)[C@H]3C[C@H](N(C)c4ccc5c(c4)C(=O)N(C4CCC(=O)NC4=O)C5=O)C3)CC2)CC1 (some centres unmarked) [Example 236, 5-(((1r,3r)-3-(4-(1-(4-((5-bromo-4-((5-(dimethylphosphoryl)quinoxalin-6-yl)amino)pyrimidin-2-yl)amino)-2-ethyl-5-methoxyphenyl)piperidin-4-yl)piperazine-1-carbonyl)cyclobutyl)(methyl)amino)-2-(2,6-dioxopiperidin-3-yl)isoindoline-1,3-dione] | 83% | 33.5 nM | 90.89% | 6.3 nM
8 | CCc1cc(Nc2ncc(Br)c(Nc3ccc4ncn(C)c(=O)c4c3P(C)(C)=O)n2)c(OC)cc1N1CCC(N2CCN(CCc3cc(F)c(C4CCC(=O)NC4=O)c(F)c3)CC2)CC1 (centres unmarked) [Example 428, 3-(4-(2-(4-(1-(4-((5-bromo-4-((5-(dimethylphosphoryl)-3-methyl-4-oxo-3,4-dihydroquinazolin-6-yl)amino)pyrimidin-2-yl)amino)-2-ethyl-5-methoxyphenyl)piperidin-4-yl)piperazin-1-yl)ethyl)-2,6-difluorophenyl)piperidine-2,6-dione] | 93.5% | 3.67 nM | 95.35% | 1.13 nM
9 | CCc1cc(Nc2ncc(Br)c(Nc3ccc4c(=O)n(C)ccc4c3P(C)(C)=O)n2)c(OC)cc1N1CCC(N2CCN(CCc3cccc4c3n(C)c(=O)n4C3CCC(=O)NC3=O)CC2)CC1 (centres unmarked) [Example 705, 3-(4-(2-(4-(1-(4-((5-bromo-4-((5-(dimethylphosphoryl)-2-methyl-1-oxo-1,2-dihydroisoquinolin-6-yl)amino)pyrimidin-2-yl)amino)-2-ethyl-5-methoxyphenyl)piperidin-4-yl)piperazin-1-yl)ethyl)-3-methyl-2-oxo-2,3-dihydro-1H-benzo[d]imidazol-1-yl)piperidine-2,6-dione] | 95.3% | 4.56 nM | 88.58% | 1.53 nM
10 | CCc1cc(Nc2ncc(Br)c(Nc3ccc4nccnc4c3P(C)(C)=O)n2)c(OC)cc1N1CCC(N2CCN(C(=O)C3CN(c4ccc5nn(C6CCC(=O)NC6=O)cc5c4)C3)CC2)CC1 (centres unmarked) [Example 315, 3-(5-(3-(4-(1-(4-((5-bromo-4-((5-(dimethylphosphoryl)quinoxalin-6-yl)amino)pyrimidin-2-yl)amino)-2-ethyl-5-methoxyphenyl)piperidin-4-yl)piperazine-1-carbonyl)azetidin-1-yl)-2H-indazol-2-yl)piperidine-2,6-dione] | 82% | 12.9 nM | 89.47% | 4.27 nM
11 | CCc1cc(Nc2ncc(Br)c(Nc3ccc4ncsc4c3P(C)(C)=O)n2)c(OC)cc1N1CCC(N2CCN(CCc3cc(F)c(C4CCC(=O)NC4=O)c(F)c3)CC2)CC1 (centres unmarked) [Example 714, 3-(4-(2-(4-(1-(4-((5-bromo-4-((7-(dimethylphosphoryl)benzo[d]thiazol-6-yl)amino)pyrimidin-2-yl)amino)-2-ethyl-5-methoxyphenyl)piperidin-4-yl)piperazin-1-yl)ethyl)-2,6-difluorophenyl)piperidine-2,6-dione] | 90.1% | 18.9 nM | 96.7% | 5.34 nM
